The values that follow come from patent publication US12252488B2 (Nimbus Saturn, Inc., priority 2021, dated 2025).

Bounds are passed on as bounds.

In the assay the target is T1, HPK1 (Homo sapiens, UniProt Q92918).
T1 construct: purchased Invitrogen
T1 sequence (Q92918 whole entry): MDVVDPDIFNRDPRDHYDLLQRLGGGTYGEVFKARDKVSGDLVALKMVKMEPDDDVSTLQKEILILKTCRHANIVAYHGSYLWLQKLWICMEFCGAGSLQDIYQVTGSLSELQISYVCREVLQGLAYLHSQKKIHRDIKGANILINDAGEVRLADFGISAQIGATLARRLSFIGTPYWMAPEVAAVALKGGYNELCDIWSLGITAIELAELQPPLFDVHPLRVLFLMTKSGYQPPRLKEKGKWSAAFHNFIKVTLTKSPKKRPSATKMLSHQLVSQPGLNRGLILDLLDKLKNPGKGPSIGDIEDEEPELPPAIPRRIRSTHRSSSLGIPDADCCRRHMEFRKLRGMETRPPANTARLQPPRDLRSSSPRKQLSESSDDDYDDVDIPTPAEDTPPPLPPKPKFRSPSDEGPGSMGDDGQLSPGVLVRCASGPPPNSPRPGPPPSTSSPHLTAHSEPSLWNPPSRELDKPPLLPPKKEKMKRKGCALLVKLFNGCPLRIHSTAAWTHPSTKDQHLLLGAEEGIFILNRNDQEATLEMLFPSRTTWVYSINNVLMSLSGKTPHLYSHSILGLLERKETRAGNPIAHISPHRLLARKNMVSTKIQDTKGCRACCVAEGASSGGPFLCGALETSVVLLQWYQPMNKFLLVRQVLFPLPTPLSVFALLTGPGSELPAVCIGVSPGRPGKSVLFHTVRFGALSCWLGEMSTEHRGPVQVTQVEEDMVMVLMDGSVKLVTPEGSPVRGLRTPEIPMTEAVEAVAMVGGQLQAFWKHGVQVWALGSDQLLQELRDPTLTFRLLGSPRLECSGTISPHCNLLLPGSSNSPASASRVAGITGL
Kind of assay: HPK1 biochemical enzyme assay (microfluidic mobility shift assay). Conditions: 1000 uM (1 mM) ATP; Caliper mobility shift; 1.5 nM HPK1; 30 min preincubation; read-out: HPK1 1000UMATP caliper IC50. On the procedure:
Example 33. HPK1 Biochemical Enzyme Assay
HPK1 biochemical enzyme assay: HPK1 enzyme inhibition was measured using a microfluidic mobility shift assay. Reactions were performed in a 384-well plate, containing 1.5 nM HPK1 (Invitrogen), in assay buffer (Carna Biosciences; pH 7.4). Test compounds were titrated in ten point curves (top final assay concentration 3 μM), and preincubated with enzyme/substrate mix for 30 min prior to initiation of the reaction by addition of ATP (1 mM final concentration) and substrate (1 μM final concentration; Carna Biosciences) diluted in assay buffer supplemented by MgCl2 (final assay concentration of 5 mM). Following 60 min incubation at RT, the reaction was terminated by addition of 60 μl/well termination buffer (Carna Biosciences) and signal determination using a Caliper EZ Reader (Perkin Elmer, UK).
The compound numbers correspond to the compound numbers in Table 1. Compounds having an activity designated as “A” provided an IC50≤100 nM; compounds having an activity designated as “B” provided an IC50>100 nM and ≤1,000 nM; compounds having an activity designated as “C” provided an IC50>1,000 nM.
One may read the IC50 as the point on the concentration scale where inhibition reaches its midpoint. `CCNC(=O)c1ccc(Nc2nc(-c3c(F)cccc3F)cc3nc[nH]c(=O)c23)cc1` [I-12, 4-[[7-(2,6-difluorophenyl)-4-oxo-3H-pyrido[4,3-d]pyrimidin-5-yl]amino]-N-ethyl-benzamide]: the IC50 lay in the range of 100 to 1000 nM.
Consider `COc1cc(-c2cc(Nc3ccc(N4CCC(O)CC4)cn3)c3c(=O)[nH]cc(C)c3n2)c(F)cc1C(=O)N1CCCCC1` [I-163, 2-[2-fluoro-5-methoxy-4-(piperidine-1-carbonyl)phenyl]-4-[[5-(4-hydroxy-1-piperidyl)-2-pyridyl]amino]-8-methyl-6H-1,6-naphthyridin-5-one], for which the IC50 was over 1000 nM.
To `COc1cc(-c2cc(Nc3cnn(C)c3)c3c(=O)[nH]ccc3n2)c(F)cc1C(=O)N1CCCCC1` [I-199, 2-[2-fluoro-5-methoxy-4-(piperidine-1-carbonyl)phenyl]-4-[(1-methyl-pyrazol-4-yl)amino]-6H-1,6-naphthyridin-5-one] belongs 100 to 1000 nM; to `N#Cc1c[nH]c(=O)c2c(Nc3ccc(N4CCC(O)CC4)cn3)cc(-c3c(F)cccc3F)nc12` [I-33, 2-(2,6-difluorophenyl)-4-[[5-(4-hydroxy-1-piperidyl)-2-pyridyl]amino]-5-oxo-6H-1,6-naphthyridine-8-carbonitrile], 100 to 1000 nM.
The figure for `O=C(Nc1ccc(-c2cc(Nc3ccc(C4CC4)cn3)c3c(=O)[nH]ccc3n2)c(F)c1)C1CCCCC1` [I-212, N-[4-[4-[(5-cyclopropyl-2-pyridyl)amino]-5-oxo-6H-1,6-naphthyridin-2-yl]-3-fluoro-phenyl] cyclohexane-carboxamide] is 100 to 1000 nM; for `CS(=O)(=O)c1ccc(Nc2cc(-c3c(F)cccc3F)nc3cc[nH]c(=O)c23)nc1` [I-18, 2-(2,6-difluoro-phenyl)-4-[(5-methyl-sulfonyl-2-pyridyl)amino]-6H-1,6-naphthyridin-5-one] it is over 1000 nM; for `O=C(c1cc(F)c(-c2cc(Nc3ccc(N4CCC(O)CC4)cn3)c3c(=O)[nH]ccc3n2)cc1C1CC1)N1CCCCC1` [I-270, 2-[5-cyclopropyl-2-fluoro-4-(piperidine-1-carbonyl)phenyl]-4-[[5-(4-hydroxy-1-piperidyl)-2-pyridyl]amino]-6H-naphthyridin-5-one] it is at most 100 nM.
Regarding `O=C(Nc1ccc(-c2cc(Nc3ccc(N4CCC(O)CC4)cn3)c3c(=O)[nH]ccc3n2)c(F)c1)C1CC1` [I-58, N-[3-fluoro-4-[4-[[5-(4-hydroxy-1-piperidyl)-2-pyridyl]amino]-5-oxo-6H-1,6-naphthyridin-2-yl]phenyl] cyclopropane-carboxamide], the IC50 was at most 100 nM.
Regarding `Cc1c[nH]c(=O)c2c(Nc3ccc(N4CCC(O)CC4)cn3)cc(-c3c(F)cccc3F)nc12` [I-25, 2-(2,6-difluorophenyl)-4-[[5-(4-hydroxy-1-piperidyl)-2-pyridyl]amino]-8-methyl-6H-1,6-naphthyridin-5-one], the IC50 was 100 to 1000 nM.
To `O=C(Nc1ccc(-c2cc(Nc3ccc(N4CCC(O)CC4)cn3)c3c(=O)[nH]ccc3n2)c(F)c1)[C@@H]1C[C@H]2CC[C@@H]1C2` (single isomer, unassigned) [I-277] belongs at most 100 nM; to `O=c1[nH]ccc2nc(-c3cc4c(cc3F)CCC4N3CCCCC3)cc(Nc3ccc(N4CCC(O)CC4)cn3)c12` (centres unmarked) [I-249, 2-[6-fluoro-3-(1-piperidyl)indan-5-yl]-4-[[5-(4-hydroxy-1-piperidyl)-2-pyridyl]amino]-6H-naphthyridin-5-one], at most 100 nM; to `O=C(c1cc(F)c(-c2cc(Nc3ccc(N4CCC(O)CC4)cn3)c3c(=O)[nH]ccc3n2)cc1F)N1CCCCC1` [I-231, 2-[2,5-difluoro-4-(piperidine-1-carbonyl)phenyl]-4-[[5-(4-hydroxy-1-piperidyl)-2-pyridyl]amino]-6H-1,6-naphthyridin-5-one], 100 to 1000 nM.
With `CS(=O)(=O)Cc1ccc(Nc2cc(-c3c(F)cccc3F)nc3cc[nH]c(=O)c23)nc1` [I-30, 2-(2,6-difluoro-phenyl)-4-[[5-(methyl-sulfonyl-methyl)-2-pyridyl]amino]-6H-1,6-naphthyridin-5-one], the IC50 was in the range of 100 to 1000 nM.
In the case of `CC(O)(c1ccc(F)c(-c2cc(Nc3ccc(N4CCC(O)CC4)cn3)c3c(=O)[nH]ccc3n2)c1)C(F)(F)F` (single isomer, unassigned) [I-274, 2-(2-fluoro-5-(1,1,1-hydroxy-propan-2-yl)phenyl)-4-((5-(4-hydroxy-piperidin-1-y)pyridin-2-yl)amino)-1,6-naphthyridin-5(6H)-one], the IC50 was at most 100 nM.
Regarding `CC1(C(=O)Nc2ccc(-c3cc(Nc4ccc(N5CCNCC5)cn4)c4c(=O)[nH]ccc4n3)c(F)c2)CCC1` [I-219, N-[3-fluoro-4-[5-oxo-4-[(5-piperazin-1-yl-2-pyridyl)amino]-6H-1,6-naphthyridin-2-yl]phenyl]-1-methyl-cyclobutane-carboxamide], the IC50 is at most 100 nM.
As to `CC(=O)N1CCC(c2cc(Nc3ccc(N4CCC(O)CC4)cn3)c3c(=O)[nH]ccc3n2)CC1` [I-63, 2-(1-acetyl-4-piperidyl)-4-[[5-(4-hydroxy-1-piperidyl)-2-pyridyl]amino]-6H-1,6-naphthyridin-5-one], the IC50 was 100 to 1000 nM.
On to `CC(=O)Nc1ccc(F)c(-c2cc(Nc3ccc(N4CCC(O)CC4)cn3)c3c(=O)[nH]ccc3n2)c1` [I-76, N-[4-fluoro-3-[4-[[5-(4-hydroxy-1-piperidyl)-2-pyridyl]amino]-5-oxo-6H-1,6-naphthyridin-2-yl]phenyl] acetamide], for which the IC50 fell in the range of 100 to 1000 nM.
With `O=c1[nH]ccc2nc(-c3c(F)cccc3F)cc(Nc3ccc(S(=O)(=O)N4CCCCC4)cn3)c12` [I-24, 2-(2,6-difluoro-phenyl)-4-[[5-(1-piperidyl-sulfonyl)-2-pyridyl]amino]-6H-1,6-naphthyridin-5-one], the IC50 fell in the range of 100 to 1000 nM.
Take `CN1CCN(Cc2ccc(-c3cc(Nc4ccc(N5CCC(O)CC5)cn4)c4c(=O)[nH]ccc4n3)c(F)c2)CC1` [I-180, 2-[2-fluoro-4-[(4-methyl-piperazin-1-yl)methyl]phenyl]-4-[[5-(4-hydroxy-1-piperidyl)-2-pyridyl]amino]-6H-1,6-naphthyridin-5-one]: the half-inhibitory concentration (IC50) was at most 100 nM.
Turning to `O=c1[nH]ccc2nc(N3CCCC(O)C3)cc(Nc3ccc(N4CCC(O)CC4)cn3)c12` (centres unmarked) [I-50, 2-(3-hydroxy-1-piperidyl)-4-[[5-(4-hydroxy-1-piperidyl)-2-pyridyl]amino]-6H-1,6-naphthyridin-5-one], the 50% inhibitory concentration (IC50) was in the range of 100 to 1000 nM.
Take `O=C(Nc1ccc(-c2cc(Nc3ccc(N4C[C@H]5COC[C@H]5C4)cn3)c3c(=O)[nH]ccc3n2)c(F)c1)C1CCCCC1` [I-207, N-[4-[4-[[5-[(3aR,6aS)-1,3,3a,4,6,6a-hexahydro-furo[3,4-c]pyrrol-5-yl]-2-pyridyl]amino]-5-oxo-6H-1,6-naphthyridin-2-yl]-3-fluoro-phenyl] cyclohexane-carboxamide]: the concentration for half-maximal inhibition (IC50) is at most 100 nM.
To `O=c1[nH]ccc2nc(-c3cc(C4COC4)ccc3F)cc(Nc3ccc(N4CCC(O)CC4)cn3)c12` [I-103, 2-[2-fluoro-5-(oxetan-3-yl)phenyl]-4-[[5-(4-hydroxy-1-piperidyl)-2-pyridyl]amino]-6H-1,6-naphthyridin-5-one] belongs at most 100 nM; to `COc1cc(OC)cc(-c2cc(Nc3ccc(N4CCC(O)CC4)cn3)c3c(=O)[nH]ccc3n2)c1` [I-100, 2-(3,5-dimethoxyphenyl)-4-[[5-(4-hydroxy-1-piperidyl)-2-pyridyl]amino]-6H-1,6-naphthyridin-5-one], at most 100 nM.
